# “Also recorded” adds a separate entry of the source.
# Legend:
# [1] = system: S. aureus; experiment: Effect of NAM on growth and viability of S. aureus; assay type: cell-based, Staphylococcus aureus; details: 6 h
# Method: The inventors assessed whether NAM, at the concentrations used in the study, adversely affect the growth and viability of S. aureus. PBS was chosen as an inert non-growth medium, and THB was chosen as a suitable growth medium for S. aureus. Seventy-five microliters of NAM (1 mM and 10 mM final concentrations; in either THB or PBS) or THB or PBS alone (respective controls) were placed in sterile 2 mL round-bottom Eppendorf tubes, and then inoculated with S. aureus (˜1×10^4 CFU/mL in 25 μl of PBS or THB) and immediately briefly vortexed. Triplicate reactions were incubated at 37° C. for 1 h, 3 h, and 6 h on a rotary shaker at which time ten-fold serial dilutions were plated on THIA for enumeration of CFU.
# In a different assay, S. aureus (˜1×10^8 CFU/mL in THB) was incubated with or without 50 mM NAM. This concentration represents the equivalent molarity of NAM used in the in vivo experiments. Triplicate 1 mL reactions were incubated at 37° C. on a rotary shaker and at various time points (6 h, 12 h, and 24 h) ten-fold serial dilutions were plated on THA for enumeration of CFU. This assay was performed on two independent occasions using inocula generated from three separate bacterial cultures.
# [2] = human trials, patients undergoing radiotherapy; cited from earlier work
# [3] = system: K. pneumoniae; experiment: Human peripheral whole blood killing assay, K. pneumoniae; assay type: cell-based; details: NAM-pretreated human blood, 3 h of infection
# Method: This well described phagocytic survival assay has been previously reported^42. Bacteria was pelleted, washed twice, diluted to the specified inoculum in 25 μl PBS (without Ca^2+ and Mg^2+), and immediately mixed with 75 μl of freshly drawn human or murine peripheral whole blood in sterile heparinized 2 mL round-bottom Eppendorf tubes. When required, murine plasma was obtained by centrifugation of heparinized whole blood at 2000×g for 15 min at RT. Reactions (performed in minimum in triplicate) were incubated at 37° C. for 1-3 h on a rotary shaker, at which time ten-fold serial dilutions were plated on THA for enumeration of surviving CFU.
# When required, freshly drawn human or murine peripheral blood was pretreated with NAM (˜0.1 mM or ˜10 mM) or PBS (without Ca^2+ and Mg^2+), prior to inoculation with bacteria.
# Participants in the inventors' study included 15 healthy humans with a negative history of infection or antibiotic treatments in the prior 4 weeks. Peripheral blood was collected from individuals in a fasting condition. Polymorph-prep (Axis-Shield, Oslo, Norway) was used for the isolation of PMNs according to the manufacturer's protocol.
# [4] = system: S. aureus; experiment: Murine systemic (i.p.) S. aureus infection; assay type: in vivo, mouse; details: 250 mg/kg i.p. daily from 24 h before infection, 48 h p.i.
# Method: Following euthanization of mice on the specified day, infected skin lesion tissue was aseptically excised, and thoroughly homogenized and mixed in 1 mL of PBS as previously shown^43. Ten-fold serial dilutions of the homogenates were plated on THA for CFU determination. The spleen and both kidneys were aseptically removed from each animal and processed in the same way. When required, the appropriate homogenized suspensions (skin lesions) were centrifuged at 15,000 g for 10 min and supernatants stored at −80° C. for subsequent analysis by ELISA.
# Mice were systemically infected by intraperitoneal (i.p.) injection of 1×10^7 CFU/mL S. aureus for 48 h. Following euthanasia, the spleen and both kidneys were removed for CFU determination.
smiles,measurement,setting,value
"NC(=O)c1cccnc1 [NAM, Nicotinamide]",direct anti-staphylococcal activity (CFU vs control),"[1]; 1 mM and 10 mM NAM in THB or PBS, 1 h, 3 h, no phagocytic cells",no direct anti-staphylococcal activity; also recorded: No differences
same,direct anti-staphylococcal activity (CFU vs control),"[1]; 50 mM NAM in THB, 12 h, 24 h",No difference in CFU
same,plasma concentration routinely achieved,[2],1000 µM
same,"K. pneumoniae CFU recovered / outcome, NAM- vs PBS-treated blood",[3],improved the outcome of infection; also recorded: Significantly less CFU
same,bacterial CFU recovered from spleens and kidneys vs PBS,[4]; C/EBPε−/− mice,no impact
same,lower S. aureus CFU in spleens and kidneys vs PBS,[4]; WT mice,approximately 2 logic
